The nature of data set [1]: Rate constant measurements (stopped-flow, pseudo-first order). The conditions noted are these: at 25° C. As to the method:
Based on these encouraging results, a study was performed to investigate whether the identified labeling conditions could be applied to Tzs that are more reactive. In this respect, Tz's with stepwise increased reactivity have been tested. […] Synthesis of respective reference compounds and precursors was completed in the same manner as discussed before. Respective second-order rate constants were determined via stopped-flow measurements. […] Radiolabeling was studied using the best aliquot conditions identified in our previous experiments. RCC for [^18F]7, [18F]8 and [^18F]9 were 35%, 30%, and 33%, respectively.
[…] Measurements were performed using a SX20 stopped flow photometer (Applied Photophysics, UK) equipped with a 360 nm LED light source and a photomultiplier type R374 in combination with a 400 nm longpass filter as detector.

The nature of a further data set: TCO click ability. The conditions noted are these: TCO-KSMO in PBS, TLC. The method, then: To a solution of TCO-KSMO (the polymer) 500 μL (1 mg/mL) PBS was added 100 μL of the formulated tetrazine.
In given time intervals, 2 μL of the solution was withdrawn and quenched with 20 μL of a 3 mg/mL bispyridine-tetrazine solution. TLC (EtOAc) determined the fraction of tetrazines reacted to the TCO. (tetrazine; front, 1,4 adduct; baseline)

A short description of data set [2]: Blood stability (TLC data). The class given is in vitro ADME. The conditions noted are these: mice whole blood, 37° C. The method, then: (§1) Blood stability was tested by mixing 250 μL mice whole blood with 250 μL of the formulated Tz, the mixture was heated and shaken at 37° C. At given time points 1, 2, 3, 5, 10, 20, 60 and 180 min, 20 μL were withdrawn and cooled to 0° C. At the same time points, 20 μL were added to a 20 μL of a solution of 1 mg/mL KSMO (TCO-Polymer) in PBS and left at RT for 1 h.
(§2) The mixtures were then centrifuged at 4200 rpm for 3 min, before ACN (40 μL) was added and centrifuged again for 3 min at 4200 rpm. The supernatant was withdrawn and analyzed with TLC and/or HPLC.

A short description of data set [3]: TCO click ability after incubation in blood. Details: species or system mice. Particulars: KSMO 1 h RT. As to the method: as §1, §2
Data set [4] is described as follows: Blood stability (TLC data). Particulars: mice whole blood, 37° C., 0 min. The class given is in vitro ADME.
Data set [5] in a line: Pretargeted PET/CT imaging with TCO-BP pretreatment. The conditions noted are these: BP-TCO pretreated mice vs controls; i.v.; 60 min dynamic PET. The format is in vivo, Balb/c mice. As to the method: All animal studied were approved by the Danish Animal Welfare Council, ministry of Justice. Five weeks old female Balb/c mice (Charles River) were acclimatized for one week with access to water and chow ad libitum. Trans-cyclooctene functionalized bisphosphonates (TCO-BP's) (100 μg. 100 μl PBS) were injected i.v. (n=2), and 1 hour later animals were administered i.v. with [^18F]9 (ca 4MBq) via the tail vein.
The animals were scanned on a dedicated small animal PET/CT scanner (Siemens) during which they were kept anesthetized by breathing sevoflurane and their temperature maintained by heating pad. Immediately after injection of [^18F]9, the animals were moved to a small animal PET/CT scanner and a 60 min dynamic PET acquisition (energy window of 350-650 KeV and a time resolution of 6 ns) was performed followed by a CT scan (360 projections, 65 kV, 500 ρA and 400 ms). Sinograms from PET scans were framed and reconstructed using a 3-dimensional maximum a posteriori algorithm with CT-based attenuation correction. PET and CT images were co-registered and analysed using Inveon software (Siemens). The mean percentage of injected dose per grams (% ID/g) in different tissues was extracted by manually creating regions of interest on fused PET/CT images.
The bioorthogonal chemistry employed is illustrated in FIG. 1. […]

Where [6] appears, read: after 0 min in mice whole blood at 37° C.
The mark [7] stands for this setting: after 1 min in mice whole blood at 37° C.
[8] abbreviates: after 2 min in mice whole blood at 37° C.
[9] abbreviates: after 3 min in mice whole blood at 37° C.
The mark [10] stands for this setting: after 5 min in mice whole blood at 37° C.
Where [11] appears, read: after 10 min in mice whole blood at 37° C.
Setting [12] is: after 20 min in mice whole blood at 37° C.
Setting [13] is: after 60 min in mice whole blood at 37° C.
The mark [14] stands for this setting: after 180 min in mice whole blood at 37° C.

Regarding `Cc1nnc(-c2ccc([18F])cc2)nn1` [[^18F]6], in data set [1], the “Second-order rate constant k2” value was 2.25 M⁻¹ s⁻¹. Also, the “fraction of tetrazines reacted to the TCO” value (“fraction” for short) in the data set “TCO click ability” (30 sec), in “TCO click ability” (1 min), in the data set “TCO click ability” (2 min), in “TCO click ability” (3 min) and in “TCO click ability” (5 min) was 100% throughout.

As for `Cc1nnc(-c2cccc([18F])c2)nn1` [[^18F]7], the Stability in data set [2] (1 min) is 95%; in data set [2] (2 min) it was 96%; in data set [2] (3 min), 95%; in data set [2] (5 min), 95%; in data set [2] (10 min) it was 96%; in data set [2] (20 min), 96%. The results for the Stability in data set [2] (60 min), in data set [2] (180 min) and in data set [4] were 96%, 77% and 94%, respectively. Besides, the TCO click ability in data set [3] (setting [6]), in data set [3] (setting [7]), in data set [3] (setting [8]), in data set [3] (setting [9]), in data set [3] (setting [10]) and in data set [3] (setting [11]) was 100% each time. The TCO click ability in data set [3] (setting [12]), in data set [3] (setting [13]) and in data set [3] (setting [14]) was 100% each time. Besides, the “fraction” value in “TCO click ability” (30 sec), in the data set “TCO click ability” (1 min), in “TCO click ability” (2 min), in the data set “TCO click ability” (3 min) and in “TCO click ability” (5 min) was 100% throughout.

Turning to `[18F]c1ccc(-c2nncnn2)cc1` [[^18F]8], the Stability in data set [2] (1 min) stood at 72%; in data set [2] (2 min), 85%; in data set [2] (3 min) it was 89%; in data set [2] (5 min), 88%; in data set [2] (10 min), 90%; in data set [2] (20 min), 89%. In addition, the Stability in data set [2] (60 min) was determined as 88%; in data set [2] (180 min) it was 82%; in data set [4], 90%. The TCO click ability in data set [3] (setting [6]), in data set [3] (setting [7]), in data set [3] (setting [8]), in data set [3] (setting [9]), in data set [3] (setting [10]) and in data set [3] (setting [11]) was 100% in each case. Moreover, the TCO click ability in data set [3] (setting [12]), in data set [3] (setting [13]) and in data set [3] (setting [14]) was 100% in each case. In data set [1], the “Second-order rate constant k2” value came to 159 M⁻¹ s⁻¹. In addition, the “fraction” value in the data set “TCO click ability” (1 min), in the data set “TCO click ability” (2 min), in the data set “TCO click ability” (3 min) and in “TCO click ability” (5 min) was 100% throughout.

For the molecule `[18F]c1cccc(-c2nncnn2)c1` [[^18F]9], in data set [5], the “PET uptake in bones (knee), the target region of BP-TCOs, compared to controls” value is reported as “higher uptake”. Also, the “PET uptake in control region (the heart), treated vs non-treated mice” value in data set [5] was “no differences could be detected”. The “Second-order rate constant k2” value in data set [1] was determined as 222 M⁻¹ s⁻¹. Besides, the “fraction” value in the data set “TCO click ability” (15 sec), in “TCO click ability” (30 sec), in “TCO click ability” (1 min), in “TCO click ability” (2 min) and in the data set “TCO click ability” (3 min) was 100% each time.
